This is an account of results in PMC4919188 (Nature, 2016).

For assay [1], the system named is high-threshold colonic afferents from CVH mice. The experiment in a line: Ex vivo gut-nerve recording, high-threshold colonic afferents, CVH mice. Further details: species or system mouse.
The test system of assay [2] is high-threshold colonic afferents from healthy mice. The assay can be described thus: Ex vivo gut-nerve recording, high-threshold colonic afferents, healthy mice. Further details: species or system mouse. The settings on record: ICA-121432 with or without Hm1a (100 nM), afferents/total.
For a further assay, the system named is P0 mouse TG neurons. The assay can be described thus: Ratiometric calcium imaging, P0 mouse TG neurons. It is filed as cell-based. The settings on record: ICA-121431 500 nM, SGTx1 500 nM; P0 mouse neurons (Extended Data Fig. 1d).
Assay [3] relates to nerve-injury evoked mechanical allodynia. The note with it: cited from earlier work.
Assay [4] has as its system mouse paw mechanical response threshold. The assay can be described thus: Von Frey test, mechanical sensitivity. It is filed as in vivo. The note with it: native Hm1b 500 nM intraplantar, n = 5.

Regarding `O=C(Nc1ccc(S(=O)(=O)Nc2nccs2)cc1)C(c1ccccc1)c1ccccc1` [ICA-121431], in assay [1] (ICA-121431 with Hm1a), the “sensitizing effects of Hm1a” value is listed as “blocked the sensitizing effects of Hm1a”. In addition, the “afferents unaltered by ICA” value in assay [1] (ICA-121432 with or without Hm1a, afferents/total) is 3/10; in assay [2], 5/10. In addition, the “block of SGTx1-evoked calcium responses” value with P0 mouse TG neurons is on record as “only partially blocked”.

On to `NC(=O)c1cn(Cc2c(F)cccc2F)nn1` [rufinamide], for which the “effect on nerve-injury evoked mechanical allodynia” value in assay [3] is recorded as “diminish nerve-injury evoked mechanical allodynia”.

For the compound “Hm1b: inhibitor cysteine knot (ICK) peptide from venom of the tarantula Heteroscodra maculata”, the “mechanical sensitization compared with Hm1a” value in assay [4] is “Equivalent mechanical sensitization”.
